Ends that are not written are not given here.
System: hPSCs
Assay: RT-qPCR of pluripotency and germ-layer markers during differentiation with CPP-peptides (Supplementary Fig. 7b-e)
Type: cell-based, human
Details: for Difference between means (B - A) ± SEM: P8 - P1
Description: For CPP-conjugated peptide delivery, HeLa, 293T, and PA-1 cells were incubated with CPP-conjugated peptides or CPP-FITC at 2 μM in DMEM with 10% FBS for 12 h a day before cell harvest. hPSCs were treated with CPP-conjugated peptides at 10 μM in mTeSR Plus Medium, and the peptide-containing medium was changed every day over 10 days. The ROCK inhibitor (Tocris Bioscience, Y-27632) treated-hPSCs were dissociated into single cells using Accutase (Merck, SCR005) and differentiated into ectoderm, mesoderm, and endoderm using the STEMdiff Trilineage Differentiation Kit ([…] Technologies, 05230) following the manufacturer’s protocol. Differentiated cells treated with CPP-conjugated peptides were analysed at 0, 3, and 5 days for ectoderm and endoderm, and at 0, 3, and 4 days for mesoderm. […]
cDNA was synthesised using RevertAid Reverse Transcriptase (Thermo Fisher Scientific, EP0441) with synthesised random hexamer (Macrogen) for total RNA or stem-loop primers for miRNA. For RT-qPCR reactions, the SensiFAST SYBR No-ROX kit (Meridian Bioscience) was used according to the manufacturer’s protocol. All data analysis and visualisation were conducted using R 3.6.1 [www.r-project.org] or GraphPad Prism 10. RT primers for miRNA and RT-qPCR primer sequences are provided in Supplementary Data 6. […]
FPKM of each gene was presented f r om RNA-seq analysis. b–e hPSCs wer e treated with the indicated peptide during each germ la ye r differentiation. […]
An unpaired Student’s t-test was used for a–e. Data are presented as mean values ± SEM. All statistical test us ed wer e two-s ided. T he m inim um number of independent biological replicate experim ents was a–f n = 3. T he experiments wer e conducted three tim es, each iteration producing consistent results.

[1] = Fig. s7d, day 3, mean of 3 replicates
[2] = Fig. s7d, day 4, mean of 3 replicates

Sequence: KKKWCRKKKSSADEKRYRALKRTAERELLMNA [CPP-P8, CPP conjugated to P8]
- transcripts downregulated in ectodermal differentiation (ectodermal differentiation): downregulated the expression of genes closely associated with CNS development (DCX, NEUROD1, NOS2, and PAX3)
- transcripts upregulated in ectodermal differentiation (ectodermal differentiation): upregulated the essential transcription factors for retinal gliogenesis and NOTCH signalling (LHX2, NOTCH1, and DLK1)

Sequence: KKKWCRKKKSSADEKRYRALKRTAERELLMNA [P8]
- CXCR4 (RT-qPCR) (Day 0, replicate 1, Fig. s7e): 1.088
- CXCR4 (RT-qPCR) (Day 0, replicate 2, Fig. s7e): 0.7848
- CXCR4 (RT-qPCR) (Day 0, replicate 3, Fig. s7e): 1.127
- CXCR4 (RT-qPCR) (Day 3, replicate 1, Fig. s7e): 70.9428
- CXCR4 (RT-qPCR) (Day 3, replicate 2, Fig. s7e): 396.929
- CXCR4 (RT-qPCR) (Day 3, replicate 3, Fig. s7e): 186.896
- CXCR4 (RT-qPCR) (Day 5, replicate 1, Fig. s7e): 166.399
- CXCR4 (RT-qPCR) (Day 5, replicate 2, Fig. s7e): 221.471
- CXCR4 (RT-qPCR) (Day 5, replicate 3, Fig. s7e): 55.5295
- Difference between means (B - A) ± SEM (CXCR4 day 3): -395.9 ± 135.2
- Mean CXCR4 (RT-qPCR) (CXCR4 day 3, mean of n = 3, Fig. s7e): 218.3
- Difference between means (B - A) ± SEM (CXCR4 day 5): -733.3 ± 94.11
- Mean CXCR4 (RT-qPCR) (CXCR4 day 5, mean of n = 3, Fig. s7e): 147.8
- FOXA1 (RT-qPCR) (Day 0, replicate 1, Fig. s7e): 1.247
- FOXA1 (RT-qPCR) (Day 0, replicate 2, Fig. s7e): 1.413
- FOXA1 (RT-qPCR) (Day 0, replicate 3, Fig. s7e): 0.3396
- FOXA1 (RT-qPCR) (Day 3, replicate 1, Fig. s7e): 74.3757
- FOXA1 (RT-qPCR) (Day 3, replicate 2, Fig. s7e): 54.052
- FOXA1 (RT-qPCR) (Day 3, replicate 3, Fig. s7e): 82.1532
- FOXA1 (RT-qPCR) (Day 5, replicate 1, Fig. s7e): 512.006
- FOXA1 (RT-qPCR) (Day 5, replicate 2, Fig. s7e): 494.768
- FOXA1 (RT-qPCR) (Day 5, replicate 3, Fig. s7e): 555.597
- Difference between means (B - A) ± SEM (FOXA1 day 5): 207.3 ± 47.14
- Mean FOXA1 (RT-qPCR) (FOXA1 day 5, mean of n = 3, Fig. s7e): 520.8
- SOX2 difference between means (P8 - P1) ± SEM (Fig. s7b, mesoderm, day 4, P8 vs. P1): 0.07995 ± 0.0229
- SOX2 mRNA level (RT-qPCR), mean (Fig. s7b, mesoderm, day 4, mean of 3 replicates): 0.08192
- BMP2 mRNA level (RT-qPCR) (Fig. s7d, Day 0, replicate 1): 0.8054
- BMP4 mRNA level (RT-qPCR) (Fig. s7d, Day 0, replicate 1): 1.545
- CDH2 mRNA level (RT-qPCR) (Fig. s7d, Day 0, replicate 1): 1.016
- CXCR4 mRNA level (RT-qPCR) (Fig. s7d, Day 0, replicate 1): 0.9995
- SNAI1 mRNA level (RT-qPCR) (Fig. s7d, Day 0, replicate 1): 1.4406
- TBXT mRNA level (RT-qPCR) (Fig. s7d, Day 0, replicate 1): 1.3
- BMP2 mRNA level (RT-qPCR) (Fig. s7d, Day 0, replicate 2): 1.199
- BMP4 mRNA level (RT-qPCR) (Fig. s7d, Day 0, replicate 2): 0.6508
- CDH2 mRNA level (RT-qPCR) (Fig. s7d, Day 0, replicate 2): 0.7569
- CXCR4 mRNA level (RT-qPCR) (Fig. s7d, Day 0, replicate 2): 1.121
- SNAI1 mRNA level (RT-qPCR) (Fig. s7d, Day 0, replicate 2): 0.9418
- TBXT mRNA level (RT-qPCR) (Fig. s7d, Day 0, replicate 2): 0.8652
- BMP2 mRNA level (RT-qPCR) (Fig. s7d, Day 0, replicate 3): 0.9954
- BMP4 mRNA level (RT-qPCR) (Fig. s7d, Day 0, replicate 3): 0.8046
- CDH2 mRNA level (RT-qPCR) (Fig. s7d, Day 0, replicate 3): 1.227
- CXCR4 mRNA level (RT-qPCR) (Fig. s7d, Day 0, replicate 3): 0.8798
- SNAI1 mRNA level (RT-qPCR) (Fig. s7d, Day 0, replicate 3): 0.6176
- TBXT mRNA level (RT-qPCR) (Fig. s7d, Day 0, replicate 3): 0.8351
- BMP2 mRNA level (RT-qPCR) (Fig. s7d, Day 3, replicate 1): 1.1089
- BMP4 mRNA level (RT-qPCR) (Fig. s7d, Day 3, replicate 1): 41.4056
- CDH2 mRNA level (RT-qPCR) (Fig. s7d, Day 3, replicate 1): 19.486
- CXCR4 mRNA level (RT-qPCR) (Fig. s7d, Day 3, replicate 1): 784.151
- SNAI1 mRNA level (RT-qPCR) (Fig. s7d, Day 3, replicate 1): 12.8862
- TBXT mRNA level (RT-qPCR) (Fig. s7d, Day 3, replicate 1): 3854.3
- BMP2 mRNA level (RT-qPCR) (Fig. s7d, Day 3, replicate 2): 1.096
- BMP4 mRNA level (RT-qPCR) (Fig. s7d, Day 3, replicate 2): 50.4784
- CDH2 mRNA level (RT-qPCR) (Fig. s7d, Day 3, replicate 2): 21.455
- CXCR4 mRNA level (RT-qPCR) (Fig. s7d, Day 3, replicate 2): 774.595
- SNAI1 mRNA level (RT-qPCR) (Fig. s7d, Day 3, replicate 2): 13.1184
- TBXT mRNA level (RT-qPCR) (Fig. s7d, Day 3, replicate 2): 4302.87
- BMP2 mRNA level (RT-qPCR) (Fig. s7d, Day 3, replicate 3): 1.333
- BMP4 mRNA level (RT-qPCR) (Fig. s7d, Day 3, replicate 3): 53.6277
- CDH2 mRNA level (RT-qPCR) (Fig. s7d, Day 3, replicate 3): 17.5345
- CXCR4 mRNA level (RT-qPCR) (Fig. s7d, Day 3, replicate 3): 641.469
- SNAI1 mRNA level (RT-qPCR) (Fig. s7d, Day 3, replicate 3): 12.7742
- TBXT mRNA level (RT-qPCR) (Fig. s7d, Day 3, replicate 3): 4804.52
- BMP2 mRNA level (RT-qPCR) (Fig. s7d, Day 4, replicate 1): 0.2478
- BMP4 mRNA level (RT-qPCR) (Fig. s7d, Day 4, replicate 1): 31.2396
- CDH2 mRNA level (RT-qPCR) (Fig. s7d, Day 4, replicate 1): 14.5509
- CXCR4 mRNA level (RT-qPCR) (Fig. s7d, Day 4, replicate 1): 668.803
- SNAI1 mRNA level (RT-qPCR) (Fig. s7d, Day 4, replicate 1): 16.3401
- TBXT mRNA level (RT-qPCR) (Fig. s7d, Day 4, replicate 1): 2083
- BMP2 mRNA level (RT-qPCR) (Fig. s7d, Day 4, replicate 2): 0.261
- BMP4 mRNA level (RT-qPCR) (Fig. s7d, Day 4, replicate 2): 27.7899
- CDH2 mRNA level (RT-qPCR) (Fig. s7d, Day 4, replicate 2): 13.2223
- CXCR4 mRNA level (RT-qPCR) (Fig. s7d, Day 4, replicate 2): 587.806
- SNAI1 mRNA level (RT-qPCR) (Fig. s7d, Day 4, replicate 2): 17.9864
- TBXT mRNA level (RT-qPCR) (Fig. s7d, Day 4, replicate 2): 2236.13
- BMP2 mRNA level (RT-qPCR) (Fig. s7d, Day 4, replicate 3): 0.2852
- BMP4 mRNA level (RT-qPCR) (Fig. s7d, Day 4, replicate 3): 35.8542
- CDH2 mRNA level (RT-qPCR) (Fig. s7d, Day 4, replicate 3): 15.5934
- CXCR4 mRNA level (RT-qPCR) (Fig. s7d, Day 4, replicate 3): 589.372
- SNAI1 mRNA level (RT-qPCR) (Fig. s7d, Day 4, replicate 3): 18.1009
- TBXT mRNA level (RT-qPCR) (Fig. s7d, Day 4, replicate 3): 2648.18
- SNAI1 difference between means (P8 - P1) ± SEM (Fig. s7d, day 3, P8 vs. P1): -10.01 ± 2.987
- SNAI1 difference between means, 95% confidence interval (Fig. s7d, day 3, P8 vs. P1): -18.30 to -1.717
- TBXT difference between means (P8 - P1) ± SEM (Fig. s7d, day 3, P8 vs. P1): -3827 ± 1244
- TBXT difference between means, 95% confidence interval (Fig. s7d, day 3, P8 vs. P1): -7280 to -372.8
- SNAI1 mRNA level (RT-qPCR), mean [1]: 12.93
- TBXT mRNA level (RT-qPCR), mean [1]: 4321
- BMP4 difference between means (P8 - P1) ± SEM (Fig. s7d, day 4, P8 vs. P1): 18.59 ± 2.500
- BMP4 difference between means, 95% confidence interval (Fig. s7d, day 4, P8 vs. P1): 11.65 to 25.53
- CDH2 difference between means (P8 - P1) ± SEM (Fig. s7d, day 4, P8 vs. P1): -2.944 ± 0.7977
- CDH2 difference between means, 95% confidence interval (Fig. s7d, day 4, P8 vs. P1): -5.158 to -0.7287
- TBXT difference between means (P8 - P1) ± SEM (Fig. s7d, day 4, P8 vs. P1): -1631 ± 305.2
- TBXT difference between means, 95% confidence interval (Fig. s7d, day 4, P8 vs. P1): -2478 to -783.3
- BMP4 mRNA level (RT-qPCR), mean [2]: 31.63
- CDH2 mRNA level (RT-qPCR), mean [2]: 14.46
- TBXT mRNA level (RT-qPCR), mean [2]: 2322
- GATA4 (RT-qPCR) (Day 0, replicate 1, Fig. s7e): 0.7242
- GATA4 (RT-qPCR) (Day 0, replicate 2, Fig. s7e): 1.3517
- GATA4 (RT-qPCR) (Day 0, replicate 3, Fig. s7e): 0.9241
- GATA4 (RT-qPCR) (Day 3, replicate 1, Fig. s7e): 32.2
- GATA4 (RT-qPCR) (Day 3, replicate 2, Fig. s7e): 35.8526
- GATA4 (RT-qPCR) (Day 3, replicate 3, Fig. s7e): 22.1669
- GATA4 (RT-qPCR) (Day 5, replicate 1, Fig. s7e): 75.9376
- GATA4 (RT-qPCR) (Day 5, replicate 2, Fig. s7e): 69.9276
- GATA4 (RT-qPCR) (Day 5, replicate 3, Fig. s7e): 152.842
- SOX17 (RT-qPCR) (Day 0, replicate 1, Fig. s7e): 1.264
- SOX17 (RT-qPCR) (Day 0, replicate 2, Fig. s7e): 0.8709
- SOX17 (RT-qPCR) (Day 0, replicate 3, Fig. s7e): 0.8647
- SOX17 (RT-qPCR) (Day 3, replicate 1, Fig. s7e): 2247.1
- SOX17 (RT-qPCR) (Day 3, replicate 2, Fig. s7e): 1796.71
- SOX17 (RT-qPCR) (Day 3, replicate 3, Fig. s7e): 1610.91
- SOX17 (RT-qPCR) (Day 5, replicate 1, Fig. s7e): 1021.85
- SOX17 (RT-qPCR) (Day 5, replicate 2, Fig. s7e): 1109.15
- SOX17 (RT-qPCR) (Day 5, replicate 3, Fig. s7e): 1096.19
